Data reported in patent US10196373B2, “Substituted 2-hydroxy-4-(2-(phenylsulfonamido)acetamido)benzoic acid analogs as inhibitors of STAT protein” (University of Central Florida Research Foundation, Inc., priority 2010, dated 2019).

How the values were obtained:
STAT3 = STAT3 (Homo sapiens (Human), UniProt P40763); test: Fluorescence polarization assay, inhibition of binding to STAT3; conditions: inhibition of binding to STAT3 in a fluorescence polarization assay; read-out: Ki (FP)
Procedure: The fluorescent polarization experiments were performed on an Infinite M1000 (Tecan, Crailsheim, Germany). All assays were performed in the same buffer conditions of 50 mM NaCl, 10 mM Hepes, pH 7.5, 1 mM EDTA, and 2 mM dithiothreitol. Fluorescent-labelled peptides were kept at a final concentration of 10nM in buffered solution. […] of labelled peptides were added to […] of a 300 nM STAT3 protein solution (provided by SignalChem in 50 mM Tris-HCl, pH 7.5, 150 mM NaCl, 0.25 mM DTT, 0.1 mM PMSF, 25% glycerol and stored at −80° C.). Inhibitory molecules were dissolved in pure DMSO and diluted using buffer solution to produce four final concentrations ([…]). 7.5 μL of the inhibitory molecule solution was mixed with the STAT3 protein and labelled peptide solution in black 384-flat well microplates (Coming), and incubated for 15-30 minutes. The M1000 performed a shaking cycle and then read the plates. IC50′s were derived from the output using the curve-fitting software OriginPro 8 (Northampton, MA). The FP data was modelled by the following equation:
[formula] where X was the concentration of inhibitor and ρwas the corresponding fluorescence at that concentration. The free parameter was half the maximal inhibitory concentration (IC50) and the limiting values was the maximal measured fluorescence polarization (ρ1) and the minimal fluorescence polarization (ρ2). Origin curve fitting software utilizes the Levenberg-Marquardt algorithm and reduced chi-square criterion for convergence. The inhibitor dissociation constant, Ki, was calculated from the derived IC50 values, as per the following formula: […]
Further details of the fluorescence polarization assay are as described previously (Zhang X, et al. (2010) A novel small-molecule disrupts Stat3 SH2domainphosphotyrosine interactions and Stat3-dependent tumor processes. Biochem Pharmacol 79: 1398-1409).

OCI-AMI.2 cells = test: Cell viability, MTS assay; format: cell-based
MDA-468 cells = test: Cell viability, MTS assay; format: cell-based; conditions: Homo sapiens, MDA-468, 72 hours
Procedure: (§1) To further test activity of these molecules, a whole-cell study involving cancer lines with known abherrant STAT3 expression was conducted. These human cell lines, including prostate cancer (DU145), breast cancer (MDA468), and promyelocytic leukemia (HL-60) were treated with the peptidomimetics and incubated for 72 hours. Disruption of cell viability was measured by MTS assay and IC50 values for the potential inhibitors was determined. OriginPro 8 (Northampton, Mass.) was used to evaluate EC50 using the dose response curve defined as follows:
(§2) [formula] where y is the fraction of death, x is the log of drug concentration. A2 is the top asymptote, A1 is the bottom asymptote, logx0 is the center of the curve, and p is the hill slope.

HL60 cells = test: Cell viability, MTS assay; format: cell-based; conditions: Homo sapiens, HL-60, HL60, 72 hours
Procedure: as §1, §2

DU-145 cells = test: Cell viability, MTS assay; format: cell-based; conditions: Homo sapiens, DU-145, 72 hours
Procedure: as §1, §2

STAT3, sequence (P40763 whole entry): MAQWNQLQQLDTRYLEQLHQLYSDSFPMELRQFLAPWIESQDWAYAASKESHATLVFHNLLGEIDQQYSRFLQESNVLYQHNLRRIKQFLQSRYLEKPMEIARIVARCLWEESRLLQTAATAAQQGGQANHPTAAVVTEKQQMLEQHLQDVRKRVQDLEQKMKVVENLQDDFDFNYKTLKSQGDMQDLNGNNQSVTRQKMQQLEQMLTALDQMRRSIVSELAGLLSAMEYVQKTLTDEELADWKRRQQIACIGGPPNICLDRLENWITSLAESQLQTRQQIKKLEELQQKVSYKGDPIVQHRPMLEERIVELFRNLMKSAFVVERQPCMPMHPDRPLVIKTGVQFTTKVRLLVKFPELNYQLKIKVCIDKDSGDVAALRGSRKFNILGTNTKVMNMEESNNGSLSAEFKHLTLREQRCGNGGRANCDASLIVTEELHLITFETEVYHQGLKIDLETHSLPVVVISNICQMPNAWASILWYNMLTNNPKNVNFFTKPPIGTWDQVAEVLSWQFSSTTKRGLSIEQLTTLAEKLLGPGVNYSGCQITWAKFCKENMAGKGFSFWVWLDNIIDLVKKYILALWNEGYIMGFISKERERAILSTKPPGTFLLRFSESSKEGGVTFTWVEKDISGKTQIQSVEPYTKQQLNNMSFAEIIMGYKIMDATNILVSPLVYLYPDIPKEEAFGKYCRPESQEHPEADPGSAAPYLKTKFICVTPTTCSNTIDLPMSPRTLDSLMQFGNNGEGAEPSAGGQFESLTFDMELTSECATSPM

Row | Structure (SMILES) | Ki (STAT3) [µM] | IC50 (OCI-AMI.2 cells) [µM] | IC50 (HL60 cells) [µM] | IC50 (DU-145 cells) [µM] | IC50 (MDA-468 cells) [µM]
1 | Cc1ccc(S(=O)(=O)N(CC(=O)N(Cc2ccc(C3CCCCC3)cc2)c2ccc(C(=O)O)c(O)c2)Cc2cccc([N+](=O)[O-])c2)cc1 [BP3-019] | 2.5 ± 2.2 |  |  |  | 
2 | Cc1ccc(S(=O)(=O)N(CC(=O)N(Cc2ccc(C3CCCCC3)cc2)c2ccc(C(=O)O)c(O)c2)Cc2ccccc2[N+](=O)[O-])cc1 [BP3-020] | 5 ± 6.5 |  |  |  | 
3 | Cc1ccc(S(=O)(=O)N(CC(=O)N(Cc2ccc(C3CCCCC3)cc2)c2ccc(C(=O)O)c(O)c2)Cc2ccc(C#N)cc2)cc1 [BP3-021] | 4.3 ± 0.7 |  |  |  | 
4 | Cc1ccc(S(=O)(=O)N(CC(=O)N(Cc2ccc(C3CCCCC3)cc2)c2ccc(C(=O)O)c(O)c2)Cc2cccc(C#N)c2)cc1 [BP3-023] | 6.2 ± 0.8 |  |  |  | 
5 | Cc1ccc(S(=O)(=O)N(CC(=O)N(Cc2ccc(C3CCCCC3)cc2)c2ccc(C(=O)O)c(O)c2)Cc2ccccc2C#N)cc1 [BP3-024] | 11.3 ± 0.8 |  |  |  | 
6 | Cc1ccc(S(=O)(=O)N(C)CC(=O)N(Cc2ccc(C3CCN(C(=O)OC(C)(C)C)CC3)cc2)c2ccc(C(=O)O)c(O)c2)cc1 [Compound 27KC, 4-(N-(4-(1-(tert-butoxycarbonyl)piperidin-4-yl)benzyl)-2-(N,4-dimethylphenylsulfon-amido)acetamido)-2-hydroxybenzoic acid] | 18.7 ± 1.4 |  |  |  | 
7 | Cc1ccc(S(=O)(=O)N(CC(=O)N(Cc2ccc(C3CCCCC3)cc2)c2ccc(C(=O)O)c(O)c2)Cc2ccc(Cl)cc2)cc1 [SH3-076] | 3.1 ± 0.1 |  |  |  | 
8 | Cc1ccc(S(=O)(=O)N(CC(=O)N(Cc2ccc(C3CCCCC3)cc2)c2ccc(C(=O)O)c(O)c2)Cc2cccc(Cl)c2)cc1 [SH3-077] | 3 ± 4.1 |  |  |  | 
9 | Cc1ccc(S(=O)(=O)N(CC(=O)N(Cc2ccc(C3CCCCC3)cc2)c2ccc(C(=O)O)c(O)c2)Cc2ccccc2Cl)cc1 [SH3-079] | 7.9 ± 0.3 |  |  |  | 
10 | CCOC(=O)c1ccc(CN(CC(=O)N(Cc2ccc(C3CCCCC3)cc2)c2ccc(C(=O)O)c(O)c2)S(=O)(=O)c2ccc(C)cc2)cc1 [XW1-053] | 3.8 ± 1.5 |  |  |  | 
11 | Cc1ccc(S(=O)(=O)N(CC(=O)N(Cc2ccc(C3CCCCC3)cc2)c2ccc(C(=O)O)c(O)c2)Cc2cccc(OC(F)(F)F)c2)cc1 [XW1-055] | 4 ± 1.1 |  |  |  | 
12 | Cc1ccc(S(=O)(=O)N(CC(=O)N(Cc2ccc(C3CCCCC3)cc2)c2ccc(C(=O)O)c(O)c2)Cc2ccc(SC(F)(F)F)cc2)cc1 [XW1-057] | 4.8 ± 0.6 |  |  |  | 
13 | Cc1ccc(S(=O)(=O)N(CC(=O)N(Cc2ccc(C3CCCCC3)cc2)c2ccc(C(=O)O)c(O)c2)Cc2ccc(C(F)(F)F)cc2)cc1 [XW1-059] | 4.6 ± 1.6 |  |  |  | 
14 | Cc1ccc(S(=O)(=O)N(CC(=O)N(Cc2ccc(C3CCCCC3)cc2)c2ccc(C(=O)O)c(O)c2)Cc2ccccc2OC(F)(F)F)cc1 [XW1-061] | 3.6 ± 0.5 |  |  |  | 
15 | Cc1ccc(S(=O)(=O)N(CC(=O)N(Cc2ccc(C3CCCCC3)cc2)c2ccc(C(=O)O)c(O)c2)Cc2ccc(F)cc2C(F)(F)F)cc1 [XW1-075] | 5.5 ± 0.4 |  |  |  | 
16 | Cc1ccc(S(=O)(=O)N(CC(=O)N(Cc2ccc(C3CCCCC3)cc2)c2ccc(C(=O)O)c(O)c2)Cc2ccc(OC(F)(F)F)cc2)cc1 [XW1-077] | 5.9 ± 0.6 |  |  |  | 
17 | Cc1ccc(S(=O)(=O)N(CC(=O)N(Cc2ccc(C3CCCCC3)cc2)c2ccc(C(=O)O)c(O)c2)Cc2cccc(C(F)(F)F)c2)cc1 [XW1-079] | 5.1 ± 0.4 |  |  |  | 
18 | COC(=O)c1cccc(CN(CC(=O)N(Cc2ccc(C3CCCCC3)cc2)c2ccc(C(=O)O)c(O)c2)S(=O)(=O)c2ccc(C)cc2)c1 [XW1-081] | 9.2 ± 0.8 |  |  |  | 
19 | COC(=O)c1ccc(CN(CC(=O)N(Cc2ccc(C3CCCCC3)cc2)c2ccc(C(=O)O)c(O)c2)S(=O)(=O)c2ccc(C)cc2)cc1 [XW1-083] | 5.8 ± 0.6 |  |  |  | 

Further lines, with some results ahead:

Row | Ki (STAT3) [µM] | IC50 (OCI-AMI.2 cells) [µM] | IC50 (HL60 cells) [µM] | IC50 (DU-145 cells) [µM] | Structure (SMILES) | IC50 (MDA-468 cells) [µM]
20 |  | 76.7 ± 27.1 | 68 ± 32.8 | > 100 | Cc1ccc(S(=O)(=O)N(C)CC(=O)N(Cc2ccc(-c3ccc(C(=O)O)cc3)cc2)c2ccc(C(=O)O)c(O)c2)cc1 [Compound 27LE, 4′-((N-(4-carboxy-3-hydroxyphenyl)-2-(N,4-dimethylphenylsulfonamido)acetamido)methyl)-[1,1′-biphenyl]-4-carboxylic acid] | 52.9 ± 22.5
21 |  | > 100 | 82.8 ± 19 | > 100 | Cc1ccc(S(=O)(=O)N(C)CC(=O)N(Cc2ccc(-c3ccc(-c4cccc(C#N)c4)cc3)cc2)c2ccc(C(=O)O)c(O)c2)cc1 [Compound 27NC] | 90.5 ± 63.2
22 |  | > 100 | > 100 | > 100 | COC(=O)c1ccc(-c2ccc(-c3ccc(CN(C(=O)CN(C)S(=O)(=O)c4ccc(C)cc4)c4ccc(C(=O)O)c(O)c4)cc3)cc2)cc1 [Compound 27NE] | 96.3 ± 31.7
23 |  | 58.4 ± 13.8 | 37.4 ± 14 | 94.4 ± 6.8 | Cc1ccc(S(=O)(=O)N(C)CC(=O)N(Cc2ccc(-c3ccc(-c4ccc(C#N)cc4)cc3)cc2)c2ccc(C(=O)O)c(O)c2)cc1 [Compound 27NG, 4-(N-((4′-cyanoterphenyl-4-yl)methyl)-2-(N,4-dimethylphenylsulfonamido)acetamido)-2-hydroxybenzoic acid] | 32.5 ± 15.5
24 |  | 85.9 ± 0.4 | 78.5 ± 1.8 | 90.4 ± 3.1 | Cc1cccc(S(=O)(=O)N(C)CC(=O)N(Cc2ccc(C3CCCCC3)cc2)c2ccc(C(=O)O)c(O)c2)c1 [Compound 45A, 4-(N-(4-cyclohexylbenzyl)-2-(N,3-dimethylphenylsulfonamido)acetamido)-2-hydroxy-benzoic acid] | 59.6 ± 4
25 |  | > 100 | 74.9 ± 20.2 | > 100 | CN(C)c1cccc2c(S(=O)(=O)N(C)CC(=O)N(Cc3ccc(C4CCCCC4)cc3)c3ccc(C(=O)O)c(O)c3)cccc12 [Compound 45G, 4-(N-(4-cyclohexylbenzyl)-2-(5-(dimethylamino)-N-methylnaphthalene-1-sulfonamido)acetamido)-2-hydroxybenzoic acid] | 45.5 ± 7.9
26 |  | > 100 | > 100 | > 100 | CN(CC(=O)N(Cc1ccc(C2CCCCC2)cc1)c1ccc(C(=O)O)c(O)c1)S(=O)(=O)c1cn(C)cn1 [Compound 45H, 4-(N-(4-cyclohexylbenzyl)-2-(N,1-dimethyl-1H-imidazole-4-sulfonamido)acetamido)-2-hydroxybenzoic acid] | > 100
27 |  | 53.5 ± 22.8 | 59.1 ± 11.5 | 69.6 ± 3.4 | CN(CC(=O)N(Cc1ccc(C2CCCCC2)cc1)c1ccc(C(=O)O)c(O)c1)S(=O)(=O)c1ccc(C#N)cc1 [Compound 45I, 4-(2-(4-cyano-N-methylphenylsulfonamido)-N-(4-cyclohexylbenzyl)acetamido)-2-hydroxy-benzoic acid] | 27 ± 2.7
28 |  | 44.9 ± 7.1 | 47.4 ± 8.2 | 45.9 ± 8.6 | CN(CC(=O)N(Cc1ccc(C2CCCCC2)cc1)c1ccc(C(=O)O)c(O)c1)S(=O)(=O)c1ccc(Br)cc1 [Compound 45J] | 19.5 ± 2
29 |  | 76.4 ± 10.8 | 56.3 ± 9.3 | 67.5 ± 24.2 | CN(CC(=O)N(Cc1ccc(C2CCCCC2)cc1)c1ccc(C(=O)O)c(O)c1)S(=O)(=O)c1ccc(Cl)cc1 [Compound 45K, 4-(2-(4-chloro-N-methylphenylsulfonamido)-(4-cyclohexylbenzyl)acetamido)-2-hydroxy-benzoic acid] | 29.7 ± 16.7
30 |  | 84.4 ± 22.1 | 75.1 ± 25.1 | 72.7 ± 18.4 | CN(CC(=O)N(Cc1ccc(C2CCCCC2)cc1)c1ccc(C(=O)O)c(O)c1)S(=O)(=O)c1ccc(F)cc1 [Compound 45L, 4-(N-(4-cyclohexylbenzyl)-2-(4-fluoro-N-methylphenylsulfonamido)acetamido)-2-hydroxy benzoic acid] | 41.3 ± 5.7
31 |  | > 100 | > 100 | 92.7 ± 27.9 | COc1ccc(S(=O)(=O)N(C)CC(=O)N(Cc2ccc(C3CCCCC3)cc2)c2ccc(C(=O)O)c(O)c2)cc1 [Compound 45M, 4-(N-(4-cyclohexylbenzyl)-2-(4-methoxy-N-methylphenylsulfonamido)acetamido)-2-hydroxybenzoic acid] | 71.4 ± 13.6
32 |  | 96.3 ± 18.5 | 99.3 ± 62.1 | > 100 | CN(CC(=O)N(Cc1ccc(C2CCCCC2)cc1)c1ccc(C(=O)O)c(O)c1)S(=O)(=O)c1ccc([N+](=O)[O-])cc1 [Compound 45N, 4-(N-(4-cyclohexylbenzyl)-2-(N-methyl-4-nitrophenylsulfonamido)acetamido)-2-hydroxy benzoic acid] | 51.7 ± 14.2
